Key:
[1] = tested on: MDA-MB231 breast cancer cells; assay: MDA-MB231 viability in conventional 2-D culture; assay type: cell-based, human
Protocol: For the drug testing studies, different doses of two frequently utilized chemotherapeutic drugs were first evaluated with regard to their ability to reduce breast cancer cell viability in conventional 2-D culture.
(§1) Consequently, all subsequent drug testing studies were performed with doxorubicin.

[2] = tested on: MDA-MB231 breast cancer cells; assay: Doxorubicin responsiveness in 3-D cultures within RGD-modified alginate gels versus 2-D monolayer; assay type: cell-based, human; conditions: 3-D cultures within RGD-modified alginate gels vs 2-D monolayer (FIG. 5C)
Protocol: To examine tumor malignancy and efficacy of anti-cancer drugs in response to enhanced mechanical stiffness, MDA-MB231 were incorporated in 3-D RGD-modified alginate cultures and were evaluated for proliferation, secretion of a molecular marker of enhanced malignancy (i.e., interleukin-8 (IL-8)), and drug responsiveness.
as §1

Row | Compound | MDA-MB231 viability in 2-D culture ([1]; high doses, 2-D culture (FIG. 5B, left panel)) | number of viable tumor cells in 2-D culture ([1]; 0.5 μM, 2-D culture (FIG. 5B, right panel)) | efficacy of doxorubicin treatment in 3-D relative to 2-D conditions [2]
1 | N.N.[Cl][Pt][Cl] [cisplatin] | did not alter MDA-MB231 viability | – | –
2 | COc1cccc2c1C(=O)c1c(O)c3c(c(O)c1C2=O)C[C@@](O)(C(=O)CO)C[C@@H]3O[C@H]1C[C@H](N)[C@H](O)[C@H](C)O1 [doxorubicin] | – | efficiently reduced the number of viable tumor cells | 3-D micro-environmental conditions dramatically-reduce the efficacy of doxorubicin treatment relative to 2-D conditions

Source: patent US9097702B2, “Pathologically relevant tumor microenvironments for high-throughput drug screening” (Cornell University, priority 2008, dated 2015)
